In US10005762B2, “Pyridine derivatives” (Astellas Pharma Inc., priority 2014, dated 2018):
pIC50: −log10 of the molar value. Marks after values point to notes of the source that are not given here.

Target: IRAP (Rattus norvegicus (Rat), UniProt P97629)
Assay: Inhibition of IRAP activity (AVP degradation, rat epididymal fat pad microsomes, MALDI-MS)
Details: read-out: IRAP IC50, AVP 25 μM, 1 h at 37° C.
Protocol: (1) Inhibition of IRAP Activity
Residual AVP was then determined by mass spectrometry (MALDI-MS).

IRAP, sequence (P97629 whole entry): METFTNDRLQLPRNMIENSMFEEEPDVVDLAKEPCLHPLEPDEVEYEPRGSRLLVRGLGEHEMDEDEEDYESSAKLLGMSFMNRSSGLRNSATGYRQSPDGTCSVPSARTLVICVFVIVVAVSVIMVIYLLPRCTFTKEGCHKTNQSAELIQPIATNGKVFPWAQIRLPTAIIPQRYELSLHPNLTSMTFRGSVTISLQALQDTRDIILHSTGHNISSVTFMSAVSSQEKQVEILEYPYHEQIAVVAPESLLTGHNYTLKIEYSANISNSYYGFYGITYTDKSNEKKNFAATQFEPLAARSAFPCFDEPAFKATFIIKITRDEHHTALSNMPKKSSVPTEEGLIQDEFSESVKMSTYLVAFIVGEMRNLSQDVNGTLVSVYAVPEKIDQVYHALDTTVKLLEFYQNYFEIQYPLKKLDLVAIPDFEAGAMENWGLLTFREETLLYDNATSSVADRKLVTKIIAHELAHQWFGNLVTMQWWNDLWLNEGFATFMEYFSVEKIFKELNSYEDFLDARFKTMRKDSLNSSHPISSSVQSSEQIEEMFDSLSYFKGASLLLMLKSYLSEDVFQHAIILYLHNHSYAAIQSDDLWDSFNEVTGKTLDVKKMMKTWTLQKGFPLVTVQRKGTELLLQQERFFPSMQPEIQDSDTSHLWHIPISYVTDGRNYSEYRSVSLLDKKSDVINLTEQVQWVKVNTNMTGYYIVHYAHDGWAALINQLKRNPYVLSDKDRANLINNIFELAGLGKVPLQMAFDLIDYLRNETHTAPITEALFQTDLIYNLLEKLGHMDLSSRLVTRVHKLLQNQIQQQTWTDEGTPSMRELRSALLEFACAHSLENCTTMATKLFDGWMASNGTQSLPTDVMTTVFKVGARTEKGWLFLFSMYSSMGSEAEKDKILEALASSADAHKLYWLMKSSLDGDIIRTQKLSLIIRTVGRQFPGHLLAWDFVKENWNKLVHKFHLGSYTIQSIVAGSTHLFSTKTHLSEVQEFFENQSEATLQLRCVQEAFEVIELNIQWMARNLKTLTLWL

| SMILES | pIC50 |
| --- | --- |
| CC(C)C[C@H](N)[C@](O)(Cc1nccc2c1CCC1(CCCC1)C2)C(=O)O [Example 19] | 6.66 |
| COc1ccc(-c2ccnc(C[C@](O)(C(=O)O)[C@@H](N)CC(C)C)c2)cc1 [Example 57] | 6.89 |
| CC(C)C[C@H](N)[C@](O)(Cc1cc(C2=CCOCC2)ccn1)C(=O)O [Example 59] | 6.96 |
| CC(C)C[C@H](N)[C@](O)(Cc1cc(C2CCOCC2)ccn1)C(=O)O [Example 78] | 6.80 |
| CC(C)C[C@H](N)[C@](O)(Cc1nccc2c1CCC(OCc1ccccc1)C2)C(=O)O (some centres unmarked) [Example 80] | 6.89 |

Test system: water-loaded rats
Assay: Antidiuresis test in water-loaded rats (oral administration)
Assay type: in vivo, rat
Details: 1 mg/kg oral (values marked *); water load 30 ml/kg 1 h after dosing; urine volume 1 h after water loading; vs vehicle control
Protocol: When a test compound is a free base, one molar equivalent hydrochloric acid was added to dissolve the compound in the solvent. Rats in a vehicle control group were administered only with the vehicle. One hour after the administration, 30 ml/kg of distilled water was orally administered to the rats. One hour after the water loading, the urine volume was measured (urine volumes less than 0.3 ml were considered as 0 ml) to calculate the ratio of the urine volume (urinary excretion rate) to the amount of water load.

| SMILES | Inhibition of urination (%) |
| --- | --- |
| CSC[C@H](N)[C@](O)(Cc1nccc2c1C[C@H](CCC1CC1)C2)C(=O)O [Example 41] | 69* % |
| CCCSC[C@H](N)[C@](O)(Cc1nccc2c1C[C@H](CCC1CC1)C2)C(=O)O [Example 42] | 81* % |
| CSC[C@H](N)[C@](O)(Cc1nccc2c1C[C@@H](CCC1CC1)C2)C(=O)O [Example 44] | 51* % |

Same assay, conditions: 3 mg/kg oral; water load 30 ml/kg 1 h after dosing; urine volume 1 h after water loading; vs vehicle control

| SMILES | Inhibition of urination (%) |
| --- | --- |
| Cc1cnc(C[C@](O)(C(=O)O)[C@@H](N)COCCC2CC2)cc1CCCC1CC1 [Example 25] | 88 |
| N[C@@H](CCC1CC1)[C@](O)(Cc1cc(CCCC2CC2)ccn1)C(=O)O [Example 40] | 100 |
| CC(C)C[C@H](N)[C@](O)(Cc1nccc2c1C[C@H](CCC1CC1)C2)C(=O)O [Example 52] | 90 |
